Entries after “also recorded” stand apart in the source; their conditions may differ. Where a SMILES comes first, the peptide text is derived from it. The star is where a group is joined. Cbz = O=C(OCc1ccccc1)*; CH2F = FC*

The text below walks through data of patent US9765297B2, “Stem cell-based culture system for drug development” (THE TRUSTEES OF COLUMBIA UNIVERSITY IN THE CITY OF NEW YORK, priority 2007, dated 2017).

One experiment relates to ESMN plated on G93A AML. Briefly: Co-culture of embryonic stem cell-derived motor neurons (ESMN) on mutant SOD1 G93A astrocyte monolayers with pharmacological treatment; survival and death counted at 7 d. The experiment is classed as cell-based, mouse. Particulars: 7 d post-plating, V5 50-200 μM, zVAD-fmk 10-20 μM; for percentages of surviving ESMN: ESMN on G93A AML, vs vehicle; for percentages of ESMN / MAP2+ neurons labeled with EthD (dying cells) / percentages of embryonic stem cell-derived MAP2+/fractin+ neurons (apoptosis): G93A AML co-cultures, vs vehicle (DMSO), added daily. As for the experimental part: Glial monolayers were prepared from spinal cord from transgenic SOD^G93A, SOD^G37R, SOD^G85R, SOD^WT of newborn pups as described by Silva and collaborators^31. Cell suspensions were plated in glial medium: Dubelco Modified Eagle's medium (DMEM; Invitrogen, Carlsbad, Calif.) containing 10% fetal bovine serum (FBS; Invitrogen), 100 U/mL penicillin and 100 μg/mL streptomycin (penicillin/streptomycin, Invitrogen). After 2 weeks, glial cultures contained 95% of glial acidic fibrillary protein (GFAP)^+ astrocytes, 5% of CD11b^+ microglia, and no neuron or oligodendrocyte as indicated by the lack of respectively MAP2 or 2′-3′-cyclic nucleotide phosphohydrolase immunoreactivity (data not shown). To eliminate residual microglia, 2-week-old flasks were agitated (200 rpm; 6 h) and astrocytes were detached by 0.25% trypsin (Invitrogen) and plated onto coverslips at a density of 20,000 cells/cm^2.
Cells were derived from Hlxb9-GFP1Tmj transgenic mice^13 and differentiated into ESMN as described previously^13. To form EBs, cells were grown for 2 d in 1:1 (v/v) DMEM/Ham's F-12 media (Invitrogen) medium containing B27 supplement (Invitrogen), penicillin/streptomycin and 0.1 mM β-mercaptoethanol (Sigma, Saint Louis, Mo.). They were treated with 1 μM retinoic acid (Sigma) and 400 nM sonic hedgehog agonist (Hh-Ag1.3, Curls Inc., Cambridge, Mass.) for 5 d and dissociated with papain (Worthington, Lakewood, N.J.). Cells were plated at 1,600 eGFP-positive cells/cm^2 in motor neuron medium: Neurobasal medium (Invitrogen) containing 2% horse serum (heat inactivated; Invitrogen), B27 supplement, 0.5 mM glutamine (Invitrogen), 25 μM β-mercaptoethanol, penicillin/streptomycin. To obtain LH2-positive neurons, once EBs were formed they were treated with 0.1 μM retinoic acid and 15 ng/mL bone morphogenetic protein 4 (R&D systems, Minneapolis, Minn.) for 5 d before papain dissociation. Then, 1,500 cells/cm^2 were plated onto astrocyte monolayer in motor neuron medium.
For EthD (Molecular Probes) estimation of death, cells were incubated with 2 μM EthD (diluted in D-PBS; 45 min; RT) as we previously reported^36. For immunocytochemistry and the other cell labelings, cells were processed as we previously described^36. Primary antibodies used were: rabbit polyclonal anti-eGFP (1:2000; Molecular Probes), anti-fractin (1:5000; BD Pharmingen, San Jose, Calif.), GABA (1:2000; Chemicon), anti-Lim2 (1:150; from Dr. Jessell's lab), and anti-HB9 (1:1000 from T M Jessell's lab); goat polyclonal anti-ChAT (1:100; Chemicon, Temecula, Calif.); sheep polyclonal anti-SOD1 (1:500; Calbiochem), rabbit anti-protein gene product 9.5 (PG-P 9.5; 1:2000; Chemicon) and mouse monoclonal anti-MAP-2 (1:1000; Chemicon), anti-GFAP (1:1000; Sigma), anti-Islet 1/2 (1:100; from TM Jessell's lab), anti-LH2 (1:2; from T M Jessell's lab), and anti-SMI-32 for non-phosphorylated neurofilament heavy chain (1:1000, Sternberger monoclonals, Lutherville, Md.). Terminal deoxy-UTP nick-end labeling (Tunel, in situ cell death detection kit, Roche Diagnostic, Indianapolis, Ind.) were performed following the manufacturer's recommendations.
zVAD-fmk and V5 (Sigma) were dissolved in DMSO and add to co-cultures to final concentrations ranging from 10-20 μM for the former and 50-200 μM for the latter. Fresh drugs were added daily. Cell survival and death were evaluated at 7 d by counting eGFP^+/HB9^+ neurons, and EthD- and fractin-labeled cells as described below.
Results are expressed as mean±standard error of the mean (s.e.m.) for 3-6 independent experiments. Each experiment corresponds ≧3 transgenic and non-transgenic co-cultures from the same litter and 3 coverslips per time point and per condition. Each coverslip was counted at ×100 under fluorescent examination in its entirety. To determine the proportion of dying or apoptotic neurons, ≧750 MAP2^+ neurons were counted per culture. […]

Experiment [1] has as its system motor neurons on mutant SOD1 astrocyte layer. The experiment in a line: Motor neuron / mutant SOD1 astrocyte co-cultures incubated with CNQX or Fas-Fc (FIG. 11c,d). It is filed as cell-based, mouse. Particulars: 100 μM CNQX. As for the experimental part: FIG. 11a-e. Glutamate, Fas ligand and several major cytokines and chemokines are not involved in the toxicity of mutant SOD1 astrocytes to motor neurons. […] (b) 14 d-old-confluent ^NTgAML or ^G93AAML were incubated with 200 μM of glutamate. Then, the extracellular concentration of glutamate was monitored by HPLC at 0, 0.5, 1, 3, 6 and 24 hr. No interaction was found between the timing of glutamate decrease in the medium and the genotypes of the two astrocyte layers (F[2.241]=0.430; P=0.826; ANOVA). […] (e) The relative contents of 19 cytokines/chemokines were screened by array in CMd from G93A and NTg astrocytes. The genotypic differences were highlighted in bold. […]
Results are expressed as mean±standard error of the mean (s.e.m.) for 3-6 independent experiments. […] Each coverslip was counted at ×100 under fluorescent examination in its entirety. To determine the proportion of dying or apoptotic neurons, ≧750 MAP2^+ neurons were counted per culture. Differences between means were analyzed by a two-tailed Student's t-test whereas among means by one- or two-way ANOVA with the different types of mice, treatment doses, or time as the independent factors. […] For morphometry studies, differences were analyzed by Kolmogorov-Smimov test (www.physics.csbsju.edu/stats/KS-test.n.plot_form.html). […]

In the case of `COC(=O)C[C@H](NC(=O)[C@H](C)NC(=O)[C@@H](NC(=O)OCc1ccccc1)C(C)C)C(=O)CF` [zVAD-fmk] (Cbz-Val-Ala-Asp(OMe)-CH2F), in the experiment on ESMN plated on G93A AML, the “percentages of surviving ESMN” value is listed as “failed to improve”, the “percentages of ESMN / MAP2+ neurons labeled with EthD (dying cells)” value was “had no effect” and the “percentages of embryonic stem cell-derived MAP2+/fractin+ neurons (apoptosis)” value is on record as “decreased”. Besides, the “percentages of surviving ESMN” value in the experiment on ESMN plated on G93A AML (listed as zVAD.fmk) was “had no effect”.
As for `N#Cc1cc2[nH]c(=O)c(=O)[nH]c2cc1[N+](=O)[O-]` [CNQX], the “mutant SOD1 astrocyte-mediated motor neuron death” value in experiment [1] is listed as “did not influence”.
On to VPMLK [V5], for which, in the experiment with ESMN plated on G93A AML, the “percentages of surviving ESMN” value is “augmented; also recorded: increases”, the “percentages of ESMN / MAP2+ neurons labeled with EthD (dying cells)” value is “diminished; also recorded: decreases” and the “percentages of embryonic stem cell-derived MAP2+/fractin+ neurons (apoptosis)” value is “reduced specifically; also recorded: decreases; also recorded: inhibited apoptosis”.
